Patent publication US6693137B1, “Sulphonamide derivatives” (Eli Lilly and Company, priority 1998, dated 2004)

Molecular target: T1, human GluR4B receptor (Homo sapiens, UniProt P48058)
T1 construct: expressed in transfected cells
Assay: potentiation of agonist-induced excitability of human GluR4B receptor expressed in HEK 293 cells
Format: cell-based
Text: The ability of compounds of formula I to potentiate glutamate receptor-mediated response may be determined using fluorescent calcium indicator dyes (Molecular Probes, Eugene, Oreg., Fluo-3) and by measuring glutamate-evoked efflux of calcium into GluR^4 transfected HEK293 cells, as described in more detail below.
In one test, 96 well plates containing confluent monolayers of HEK cells stably expressing human GluR4B (obtained as described in European Patent Application Publication Number EP-A1-583917) are prepared. The tissue culture medium in the wells is then discarded, and the wells are each washed once with 200 μl of buffer (glucose, 10 mM, sodium chloride, 138 mM, magnesium chloride, 1 mM, potassium chloride, 5 mM, calcium chloride, 5 mM, N-[2-hydroxyethyl]piperazine-N-[2-ethanesulfonic acid], 10 mM, to pH 7.1 to 7.3). […]
Each test is then performed as follows. […] A second fluorescent reading is taken after 5 minutes incubation. 15 μl of 400 μM glutamate solution is then added to each well (final glutamate concentration 100 μM), and a third reading is taken. The activities of test compounds and cyclothiazide solutions are determined by subtracting the second from the third reading (fluorescence due to addition of glutamate in the presence or absence of test compound or cyclothiazide) and are expressed relative to enhance fluorescence produced by 100 μM cyclothiazide.

T1 sequence (P48058 21-902): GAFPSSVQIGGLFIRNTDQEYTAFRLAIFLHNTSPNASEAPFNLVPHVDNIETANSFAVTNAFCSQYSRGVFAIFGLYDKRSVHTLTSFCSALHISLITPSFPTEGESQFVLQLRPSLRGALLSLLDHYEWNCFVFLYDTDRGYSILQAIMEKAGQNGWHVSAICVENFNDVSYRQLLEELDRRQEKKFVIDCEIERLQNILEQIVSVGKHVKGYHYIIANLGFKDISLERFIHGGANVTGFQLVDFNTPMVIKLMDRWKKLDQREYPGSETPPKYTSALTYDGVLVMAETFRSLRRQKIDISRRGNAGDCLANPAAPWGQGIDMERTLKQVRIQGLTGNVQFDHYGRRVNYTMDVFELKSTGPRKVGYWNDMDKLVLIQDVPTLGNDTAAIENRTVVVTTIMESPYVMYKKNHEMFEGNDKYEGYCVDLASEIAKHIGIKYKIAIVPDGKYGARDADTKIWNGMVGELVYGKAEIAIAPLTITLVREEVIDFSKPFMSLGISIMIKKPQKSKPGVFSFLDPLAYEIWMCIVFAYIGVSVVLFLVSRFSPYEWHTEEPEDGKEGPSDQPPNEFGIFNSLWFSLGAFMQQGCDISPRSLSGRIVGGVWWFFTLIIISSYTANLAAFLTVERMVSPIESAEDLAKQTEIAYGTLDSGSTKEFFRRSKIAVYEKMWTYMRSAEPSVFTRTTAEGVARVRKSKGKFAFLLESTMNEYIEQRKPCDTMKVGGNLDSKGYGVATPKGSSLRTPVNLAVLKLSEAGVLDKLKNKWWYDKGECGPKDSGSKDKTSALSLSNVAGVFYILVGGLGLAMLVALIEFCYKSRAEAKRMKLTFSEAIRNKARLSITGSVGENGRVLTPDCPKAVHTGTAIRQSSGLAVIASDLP

Compound	potentiation of agonist-induced excitability
NS(=O)(=O)c1cc2c(cc1Cl)NC(C1CC3C=CC1C3)NS2(=O)=O (stereo not drawn) [cyclothiazide]	potentiate agonist-induced excitability

Tested on: not given
Assay: not given

melting point [°C]	Compound
139 to 141	CC(CNS(=O)(=O)C(C)C)c1ccc(NC(=O)CN2CCCCC2)cc1 (stereo not drawn)
113 to 116	CCOCC(=O)Nc1ccc(C(C)CNS(=O)(=O)C(C)C)cc1 (stereo not drawn)

Continued, molecule first:

Compound	melting point [°C]
CC(CNS(=O)(=O)C(C)C)c1ccc(NC(=O)CN(C)C)cc1.O=C(O)/C=C\C(=O)O (stereo not drawn)	120 to 122
CC(CNS(=O)(=O)C(C)C)c1ccc(-c2ccc(OCCN3CCCC3)cc2)cc1.Cl (stereo not drawn)	172 to 173
CC(CNS(=O)(=O)C(C)C)c1ccc(NC(=O)COc2ccccn2)cc1 (stereo not drawn)	176 to 178
